The values that follow come from ChEMBL document CHEMBL1141741, “Coluteol and Colutequinone B, More Antifungal Isoflavonoids from Colutea arborescens” (1998).

The test relates to Saccharomyces cerevisiae. Kind of test: Antimicrobial activity against Saccharomyces cerevisiae. It counts as functional.
The compound `COC1=C(OC)C(=O)C([C@@H]2COc3cc(OC)ccc3C2)=CC1=O` [COLUTEQUINONE A] had an MIC of less than 50 µg/mL. Then `COC1=CC(=O)C([C@@H]2COc3cc(OC)ccc3C2)=C(OC)C1=O` [COLUTEQUINONE B], with less than 50 µg/mL; and `COc1ccc2c(c1)OC[C@@H](c1cc(O)c(OC)c(O)c1OC)C2` [R-COLUTEOL], with less than 100 µg/mL; and NYSTATIN, with less than 5 µg/mL.
